These results are taken from patent US20230398130A1, “METHODS AND COMPOSITIONS FOR DIFFERENTIATING STEM CELLS” (Massachusetts Institute of Technology, priority 2020, published 2023).

Assay [1] concerns ISC-enriched organoids. In words: Primary screen, 384-well 2.5-D organoid differentiation (ENR+CD, 6 days): carbachol-induced lysozyme secretion (LYZ.S). Format: cell-based, murine. As to conditions: for Dose.FC.LYZ.S: primary screen, ENR+CD 6 days, FC vs plate median. The source says: (§1) High-throughput screening.
Assay [2] has as its system ISC-enriched organoids. In words: Primary screen, 384-well 2.5-D organoid differentiation (ENR+CD, 6 days, Target Selective Inhibitor Library, vs whole-plate median): ATP (CellTiter-Glo 3D, CTG). Conditions: for Dose.FC.CTG / Z.CTG: primary screen; for Dose.FC.CTG: ENR+CD 6 days, FC vs plate median; for Z.CTG: standard z score of FC. A general note: Cellular ATP, detected with luciferase, serves as a proxy for viable cell number.

The test system of assay [3] is ISC-enriched organoids. Description: Primary screen, 384-well 2.5-D organoid differentiation (ENR+CD, 6 days): basal lysozyme secretion (LYZ.NS). It is filed as cell-based, murine. As to conditions: for Dose.FC.LYZ.NS / Z.LYZ.NS: primary screen; for Dose.FC.LYZ.NS: ENR+CD 6 days, FC vs plate median; for Z.LYZ.NS: standard z score of FC.
From the text: as §1

[4] abbreviates: dose 0.08 uM (1st of 4 lines per treatment; dose not printed in this part).
Setting [5] is: dose 0.40 uM (2nd of 4 lines per treatment; dose not printed in this part).
The mark [6] stands for this setting: dose 2.00 uM (3rd of 4 lines per treatment; dose not printed in this part).
The mark [7] stands for this setting: dose 10.00 uM (4th of 4 lines per treatment; dose not printed in this part).

As for `CC1(C)CCC(CN2CCN(c3ccc(C(=O)NS(=O)(=O)c4ccc(NCC5CCOCC5)c([N+](=O)[O-])c4)c(Oc4cnc5[nH]ccc5c4)c3)CC2)=C(c2ccc(Cl)cc2)C1` [ABT-199 (GDC-0199)], the “SSMD.LYZ.S_Rep (strictly standardized mean difference)” value is listed as −0.260 in assay [1] (setting [4]), 0.443 in assay [1] (setting [5]), −0.368 in assay [1] (setting [6]) and −1.131 in assay [1] (setting [7]). For the same compound, the “Z.LYZ.S (standard z score)” value in assay [1] (setting [4]) is given as −0.285; in assay [1] (setting [5]) it was 0.494; in assay [1] (setting [6]), −0.404; in assay [1] (setting [7]), −1.890. Further, the Dose.FC.LYZ.S in assay [1] (dose 0.08 uM) is −0.044 log 2 fold change; in assay [1] (dose 0.40 uM), 0.076 log 2 fold change; in assay [1] (dose 2.00 uM), −0.063 log 2 fold change; in assay [1] (dose 10.00 uM) it was −0.292 log 2 fold change. The “SSMD.CTG_Rep (strictly standardized mean difference)” value was 0.051 in assay [2] (setting [4]), 0.111 in assay [2] (setting [5]), −0.377 in assay [2] (setting [6]) and −1.402 in assay [2] (setting [7]). In addition, the Dose.FC.CTG in assay [2] (dose 0.08 uM) was 0.019 log 2 fold change; in assay [2] (dose 0.40 uM), 0.038 log 2 fold change; in assay [2] (dose 2.00 uM) it was −0.278 log 2 fold change; in assay [2] (dose 10.00 uM), −0.519 log 2 fold change. For the same compound, the Z.CTG in assay [2] (dose 0.08 uM) is reported as 0.045; in assay [2] (dose 0.40 uM) it was 0.090; in assay [2] (dose 2.00 uM), −0.665; in assay [2] (dose 10.00 uM) it was −1.240. Further, the “SSMD.LYZ.NS_Rep (strictly standardized mean difference)” value is reported as −0.009 in assay [3] (setting [4]), −0.192 in assay [3] (setting [5]), −0.116 in assay [3] (setting [6]) and −0.810 in assay [3] (setting [7]). The Dose.FC.LYZ.NS in assay [3] (dose 0.08 uM) was −0.002 log 2 fold change; in assay [3] (dose 0.40 uM), −0.029 log 2 fold change; in assay [3] (dose 2.00 uM), −0.016 log 2 fold change; in assay [3] (dose 10.00 uM) it was −0.169 log 2 fold change. The Z.LYZ.NS in assay [3] (dose 0.08 uM) was −0.013; in assay [3] (dose 0.40 uM), −0.251; in assay [3] (dose 2.00 uM) it was −0.136; in assay [3] (dose 10.00 uM) it was −1.471.

Consider `CC1(C)CCC(c2ccc(Cl)cc2)=C(CN2CCN(c3ccc(C(=O)NS(=O)(=O)c4ccc(N[C@H](CCN5CCOCC5)CSc5ccccc5)c(S(=O)(=O)C(F)(F)F)c4)cc3)CC2)C1` [ABT-263 (Navitoclax)], for which the “SSMD.LYZ.S_Rep (strictly standardized mean difference)” value in assay [1] (setting [4]) was −0.041; in assay [1] (setting [5]), −0.134. The “Z.LYZ.S (standard z score)” value in assay [1] (setting [4]) was −0.064; in assay [1] (setting [5]), −0.129. Also, the Dose.FC.LYZ.S in assay [1] (dose 0.08 uM) is given as −0.010 log 2 fold change; in assay [1] (dose 0.40 uM), −0.020 log 2 fold change; in assay [1] (dose 2.00 uM), −0.205 log 2 fold change; in assay [1] (dose 10.00 uM), −0.400 log 2 fold change. In addition, the “SSMD.CTG_Rep (strictly standardized mean difference)” value is listed as −0.462 in assay [2] (setting [4]) and −0.777 in assay [2] (setting [5]). Besides, the Dose.FC.CTG in assay [2] (dose 0.08 uM) is listed as −0.212 log 2 fold change; in assay [2] (dose 0.40 uM), −0.264 log 2 fold change; in assay [2] (dose 2.00 uM) it was −0.368 log 2 fold change; in assay [2] (dose 10.00 uM) it was −0.962 log 2 fold change. Further, the Z.CTG is −0.507 in assay [2] (dose 0.08 uM), −0.631 in assay [2] (dose 0.40 uM), −0.878 in assay [2] (dose 2.00 uM) and −2.298 in assay [2] (dose 10.00 uM). For the same compound, the “SSMD.LYZ.NS_Rep (strictly standardized mean difference)” value in assay [3] (setting [4]) and in assay [3] (setting [5]) was 0.062 in each case. The Dose.FC.LYZ.NS in assay [3] (dose 0.08 uM) is 0.012 log 2 fold change; in assay [3] (dose 0.40 uM), 0.007 log 2 fold change; in assay [3] (dose 2.00 uM), −0.143 log 2 fold change; in assay [3] (dose 10.00 uM) it was −0.259 log 2 fold change. Also, the Z.LYZ.NS in assay [3] (dose 0.08 uM) is recorded as 0.104; in assay [3] (dose 0.40 uM) it was 0.062; in assay [3] (dose 2.00 uM), −1.248; in assay [3] (dose 10.00 uM), −2.259.

`O=C(c1ccc(F)cc1)N1CCC[C@H](c2nc(-c3ccc(F)cc3)no2)C1` [ADX-47273]: the Dose.FC.LYZ.S in assay [1] (dose 0.08 uM) was 0.147 log 2 fold change; in assay [1] (dose 0.40 uM), 0.147 log 2 fold change; in assay [1] (dose 2.00 uM), −0.039 log 2 fold change; in assay [1] (dose 10.00 uM), −0.070 log 2 fold change. The Dose.FC.CTG in assay [2] (dose 0.08 uM) is 0.115 log 2 fold change; in assay [2] (dose 0.40 uM), −0.034 log 2 fold change; in assay [2] (dose 2.00 uM), −0.210 log 2 fold change; in assay [2] (dose 10.00 uM), −0.039 log 2 fold change. In addition, the Z.CTG in assay [2] (dose 0.08 uM) is given as 0.274; in assay [2] (dose 0.40 uM), −0.082; in assay [2] (dose 2.00 uM), −0.501; in assay [2] (dose 10.00 uM) it was −0.094. Also, the Dose.FC.LYZ.NS in assay [3] (dose 0.08 uM) was 0.269 log 2 fold change; in assay [3] (dose 0.40 uM), 0.053 log 2 fold change; in assay [3] (dose 2.00 uM), −0.033 log 2 fold change; in assay [3] (dose 10.00 uM), −0.036 log 2 fold change. For the same compound, the Z.LYZ.NS is 2.346 in assay [3] (dose 0.08 uM), 0.457 in assay [3] (dose 0.40 uM), −0.286 in assay [3] (dose 2.00 uM) and −0.311 in assay [3] (dose 10.00 uM).

For `CN(C)Cc1ccc(-c2nc3cccc4c3n2CCNC4=O)cc1` [AG-14361], the Dose.FC.LYZ.S in assay [1] (dose 0.08 uM) was 0.100 log 2 fold change; in assay [1] (dose 0.40 uM) it was −0.001 log 2 fold change; in assay [1] (dose 2.00 uM), −0.065 log 2 fold change; in assay [1] (dose 10.00 uM), −0.189 log 2 fold change. The Dose.FC.CTG in assay [2] (dose 0.08 uM) is recorded as −0.012 log 2 fold change; in assay [2] (dose 0.40 uM), −0.069 log 2 fold change; in assay [2] (dose 2.00 uM), 0.005 log 2 fold change; in assay [2] (dose 10.00 uM), −0.021 log 2 fold change. The Z.CTG in assay [2] (dose 0.08 uM) is on record as −0.028; in assay [2] (dose 0.40 uM), −0.165; in assay [2] (dose 2.00 uM), 0.012; in assay [2] (dose 10.00 uM), −0.050. The Dose.FC.LYZ.NS is 0.152 log 2 fold change in assay [3] (dose 0.08 uM), 0.036 log 2 fold change in assay [3] (dose 0.40 uM), 0.032 log 2 fold change in assay [3] (dose 2.00 uM) and −0.197 log 2 fold change in assay [3] (dose 10.00 uM). In addition, the Z.LYZ.NS in assay [3] (dose 0.08 uM) is 1.324; in assay [3] (dose 0.40 uM), 0.312; in assay [3] (dose 2.00 uM), 0.278; in assay [3] (dose 10.00 uM), −1.713.

Take `CN1CCCCC1Cn1cc(C(=O)c2cc([N+](=O)[O-])ccc2I)c2ccccc21` (stereo not drawn) [AM1241]: the Dose.FC.LYZ.S is 0.046 log 2 fold change in assay [1] (dose 0.08 uM), 0.088 log 2 fold change in assay [1] (dose 0.40 uM), −0.017 log 2 fold change in assay [1] (dose 2.00 uM) and −0.080 log 2 fold change in assay [1] (dose 10.00 uM). The Dose.FC.CTG in assay [2] (dose 0.08 uM) is on record as 0.159 log 2 fold change; in assay [2] (dose 0.40 uM), −0.054 log 2 fold change; in assay [2] (dose 2.00 uM), −0.062 log 2 fold change; in assay [2] (dose 10.00 uM), −0.001 log 2 fold change. The Z.CTG in assay [2] (dose 0.08 uM) is 0.379; in assay [2] (dose 0.40 uM), −0.129; in assay [2] (dose 2.00 uM) it was −0.147; in assay [2] (dose 10.00 uM), −0.002. The Dose.FC.LYZ.NS in assay [3] (dose 0.08 uM) is on record as 0.052 log 2 fold change; in assay [3] (dose 0.40 uM), 0.004 log 2 fold change; in assay [3] (dose 2.00 uM), −0.014 log 2 fold change; in assay [3] (dose 10.00 uM), −0.003 log 2 fold change. The Z.LYZ.NS was 0.454 in assay [3] (dose 0.08 uM), 0.035 in assay [3] (dose 0.40 uM), −0.123 in assay [3] (dose 2.00 uM) and −0.028 in assay [3] (dose 10.00 uM).

In the case of `O=C1NC(=O)/C(=C/c2ccc(-c3ccc(F)cc3O)o2)S1` [AS-252424], the Dose.FC.LYZ.S was 0.072 log 2 fold change in assay [1] (dose 0.08 uM), −0.008 log 2 fold change in assay [1] (dose 0.40 uM), −0.074 log 2 fold change in assay [1] (dose 2.00 uM) and −0.022 log 2 fold change in assay [1] (dose 10.00 uM). For the same compound, the Dose.FC.CTG is given as 0.139 log 2 fold change in assay [2] (dose 0.08 uM), −0.074 log 2 fold change in assay [2] (dose 0.40 uM), −0.359 log 2 fold change in assay [2] (dose 2.00 uM) and −0.204 log 2 fold change in assay [2] (dose 10.00 uM). The Z.CTG in assay [2] (dose 0.08 uM) is given as 0.333; in assay [2] (dose 0.40 uM), −0.176; in assay [2] (dose 2.00 uM) it was −0.858; in assay [2] (dose 10.00 uM), −0.487. For the same compound, the Dose.FC.LYZ.NS is 0.070 log 2 fold change in assay [3] (dose 0.08 uM), −0.042 log 2 fold change in assay [3] (dose 0.40 uM), −0.080 log 2 fold change in assay [3] (dose 2.00 uM) and −0.077 log 2 fold change in assay [3] (dose 10.00 uM). Further, the Z.LYZ.NS is on record as 0.609 in assay [3] (dose 0.08 uM), −0.368 in assay [3] (dose 0.40 uM), −0.695 in assay [3] (dose 2.00 uM) and −0.671 in assay [3] (dose 10.00 uM).
